Assay results published in US10544112B2, “Identification of ebsulfur analogues with broad-spectrum antifungal activity” (priority 2017, dated 2020).
Values after ≈ are worked out from the molar mass of the structure shown.

Assays:
[1] = test system: C. albicans ATCC MYA-2310(S) (strain E); experiment: Antifungal MIC determination (CLSI M27-A3, 96-well); format: cell-based, Candida albicans; conditions: strain E; compounds 1-4n and AmB; 48 h, RPMI 1640
Summary of the method: (§1)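 CLSI M27-A3 microdilution, modified; RPMI 1640/0.165 M MOPS pH 7.0; final drug 12.5-0.02 μg/mL (2-fold series), inoculum 5×10^3 CFU/mL; 48 h, 35° C. Aspergillus: spores from 3-5 day PDA cultures at 25° C, tested likewise.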

[2] = test system: C. albicans ATCC MYA-2876(S) (strain C); experiment: as above; format: cell-based, Candida albicans; conditions: strain C; compounds 1-4n and AmB; 48 h, RPMI 1640
Summary of the method: as §1

J774A.1 cell line = conditions: for cell death: J774, 10 μg/mL, 24 h
Method: The human embryonic kidney cell line HEK-293 (ATCC CRL-1573) and the murine macrophage cell line J774A.1 (ATCC TIB-67) were kindly provided by Dr. Matthew S. Gentry and Dr. David J. Feola (University of Kentucky, Lexington, Ky., USA), respectively. The HEK-293 cell line was grown in Dulbecco's Modified Eagle's Medium (DMEM) (ATCC, Manassas, Va., USA) with 10% fetal bovine serum (FBS) (ATCC, Manassas, Va., USA) and 1% Pen/Strep (ATCC, Manassas, Va., USA). The J774A.1 cell line was grown under the same conditions, except that the medium used was a different type of DMEM (catalog #30-2002, ATCC, Manassas, Va., USA). The HEK-293 cell line was passaged by trypsinization with 0.05%-trypsin-0.53 mM EDTA (ATCC, Manassas, Va., USA). The J774A.1 cell line was passaged mechanically by cell scrapers (ATCC, Manassas, Va., USA). Cell confluency was observed by using a Nikon Eclipse TS100 microscope (Minato, Tokyo, Japan).
Mammalian cytotoxicity assays were performed as previously described with minor modifications (FIG. 4). The HEK-293 and J774A.1 cell lines were grown in various Dulbecco's Modified Eagle's Medium (DMEM) with 10% fetal bovine serum (FBS) and 1% Pen/Strep at 37° C. with 5% CO2. The confluent cells were either trypsinized with 0.05%-trypsin-0.53 mM EDTA (HEK-293 cell line) or mechanically removed by cell scrapers (J774A.1 cell line). […] The cells were incubated with tested compounds for another 24 h at 37° C. with 5% CO2. Cell survival was assessed by resazurin assay. Each well was treated with resazurin (10 μL of a 25 mg/L solution) for 6 h. […] Dead cells remain purple/blue. The percentage of survival rate was calculated by using the following formula: [(test value)/(control value)×100].

[3] = test system: Candida parapsilosis ATCC 22019 (strain J); experiment: Antifungal MIC determination (CLSI M27-A3, 96-well); format: cell-based; conditions: strain J; compounds 1-4n and AmB; 48 h, RPMI 1640
Summary of the method: as §1

[4] = test system: Candida krusei ATCC 6258 (strain I); experiment: as above; format: cell-based; conditions: strain I; compounds 1-4n and AmB; 48 h, RPMI 1640
Summary of the method: as §1

[5] = test system: Candida glabrata ATCC 2001 (strain H); experiment: as above; format: cell-based; conditions: strain H; compounds 1-4n and AmB; 48 h, RPMI 1640
Summary of the method: as §1

[6] = test system: Candida albicans ATCC 10231 (strain A); experiment: as above; format: cell-based; conditions: strain A; compounds 1-4n and AmB; 48 h, RPMI 1640
Summary of the method: as §1

Candida strains (A-J) = experiment: Antifungal MIC, summary over panel of Candida strains; format: cell-based
Method: Fungal MIC determination experiments were performed using untreated 96-well plates (Corning). Cells were counted either by using a hemocytometer (Hausser Scientific, Horsham, Pa., USA) or by measuring optical density at attenuance of 600 nm (OD600) by using a Genesys 20 spectrophotometer (Thermo Scientific, Waltham, Mass., USA). Spectrophotometric and colorimetric measurements in 96-well plates were performed using a SpectraMax M5 spectrometer (Molecular Devices, Sunnyvale, Calif., USA).
Yeast strains Candida albicans ATCC 10231 (strain A), C. albicans ATCC 64124 (strain B), and C. albicans ATCC MYA-2876(S) (strain C) were kindly provided by Dr. Jon Y. Takemoto (Utah State University, Logan, UT, USA). C. albicans ATCC MYA-90819(R) (strain D), C. albicans ATCC MYA-2310(S) (strain E), C. albicans ATCC 1237(R) (strain F), C. albicans ATCC MYA-1003(R) (strain G), Candida glabrata ATCC 2001 (strain H), Candida krusei ATCC 6258 (strain I), and Candida parapsilosis ATCC 22019 (strain J) were obtained from the American Type Culture Collection (ATCC, Manassas, Va., USA). The (S) and (R) indicate that ATCC reports these strains to be susceptible (S) and resistant (R) to ITC and FLC. The filamentous fungal strains Aspergillus flavus ATCC MYA-3631 (strain K), and Aspergillus terreus ATCC MYA-3633 (strain M) were also obtained from the American Type Culture Collection (ATCC, Manassas, Va., USA). Aspergillus nidulans ATCC 38163 (strain L) was kindly provided by Dr. Jon S. Thorson (University of Kentucky, Lexington, Ky., USA), respectively. Yeast strains were cultured at 35° C. Filamentous fungal strains were cultured at 25° C. and the spores were harvested. All fungal strains were cultured in RPMI 1640 medium (catalog # R6504, Sigma-Aldrich Chemical Co., St. Louis, Mo.) buffered to pH 7.0 with 0.165 M morpholinepropanesulfonic acid (MOPS) buffer (Sigma-Aldrich Chemical Co.).
The MIC values against fungal strains were determined based on a previously published protocol. MIC values for ebsulfur (2a) analogues against fungal cells were evaluated in 96-well plates as described in the CLSI document M27-A3 with minor modifications. […] Therefore, potato dextrose broth (PDB) was used to grow the yeast inocula of all strains tested, which were later diluted in RPMI 1640 medium to perform determination of MIC values. […] The tested compounds (10 mg/mL) were diluted to the working stocks (500 μg/mL) by addition of DMSO. Two-fold serial dilution of the working stocks was prepared by addition of RPMI 1640 medium (100 μL) and cell suspension (100 μL) to 96-well microtiter plate to achieve final drug and inoculum concentrations ranging from 12.5-0.02 μg/mL and 5×10^3 CFU/mL, respectively. Plates were incubated for 48 h at 35° C. […]

| SMILES | MIC-0 [1] [µg/mL] | MIC-0 [2] [µg/mL] | concentration without any toxicity (J774A.1 cell line; J774, 24 h) | MIC-0 [3] [µg/mL] | MIC-0 [4] [µg/mL] | MIC-0 [5] [µg/mL] | MIC-0 [6] [µg/mL] | MIC values against Candida strains, range (Candida strains (A-J); Candida strains A-J) [µg/mL] | cell death (J774A.1 cell line) | MIC values against clinically relevant Candida strains (Candida strains (A-J)) [ng/mL] | fold more active than AmB (Candida strains (A-J); anti-Candida) | fold more potent in MIC values than FLC (Candida strains (A-J); anti-Candida, except against strain J) |
| --- | --- | --- | --- | --- | --- | --- | --- | --- | --- | --- | --- | --- |
| CC(C)(C)n1sc2ccccc2c1=O [Compound 3g] | 1.56 (≈ 7.53 µM) | 3.13 (≈ 15.1 µM) | up to 5 μg/mL | 1.56 (≈ 7.53 µM) | 0.78 (≈ 3.76 µM) | 1.56 (≈ 7.53 µM) | 0.78 (≈ 3.76 µM) | 0.78 to 3.13 |  |  |  |  |
| CCCCCCn1sc2ccccc2c1=O [Compound 3b] | 0.78 (≈ 3.31 µM) | 0.78 (≈ 3.31 µM) |  | 0.78 (≈ 3.31 µM) | 0.78 (≈ 3.31 µM) | 1.56 (≈ 6.63 µM) | 1.56 (≈ 6.63 µM) |  | approximately 50% | 780 (≈ 3.31 µM) |  |  |
| CCCCCn1sc2ccccc2c1=O [Compound 3a] | 0.39 (≈ 1.76 µM) | 0.78 (≈ 3.52 µM) |  | 0.78 (≈ 3.52 µM) | 0.78 (≈ 3.52 µM) | 1.56 (≈ 7.05 µM) | 1.56 (≈ 7.05 µM) |  | approximately 50% | 780 (≈ 3.52 µM) | 1.25- to 10 fold | 20- to 320 fold |
